Reference: patent publication US20090325156A1, “MATERIALS AND METHODS FOR ABCB1 POLYMORPHIC VARIANT SCREENING, DIAGNOSIS, AND TREATMENT” (Government of the United States of America, as Represented …, priority 2005, published 2009)
Like-named read-outs stand apart in the source and are kept apart here.

How the values were obtained:
[1] = test system: patients with T-cell lymphoma; assay: Baseline corrected QTc interval (ΔQTc) on ECG after FK228 (romidepsin) treatment, by ABCB1 genotype; type: in vivo, human
Protocol: Complete blood cell counts with differential are obtained immediately prior to FK228 administration and on days 2, 9, and 16 to evaluate FK228-related myelosuppression. Multiple surface electrocardiograms (ECGs) are obtained immediately before FK228 administration, and at 4 hours after the start of FK228 administration, to evaluate the ability of FK228 to delay cardiac repolarization. This effect is manifested on the ECG as prolongation of the QT interval. The QT interval is transformed into the heart-rate independent corrected value known as the QTc interval. Prolongation of the QTc interval is the electrocardiographic finding associated with increased susceptibility to the development of cardiac arrythmias, including ventricular arrhythmias such as Torsade de Pointes. Because measurement of the baseline value is a factor that critically influences the observed variability in the mean QTc interval, values are computed as the mean of multiple ECGs to enhance the precision of the measurement. This computation is performed by collecting drug-free ECGs on three or more different days. The on-study time point for obtaining an ECG are selected to coincide with the maximum plasma concentration of FK228, as recommended in the preliminary FDA concept paper: The Clinical Evaluation Of Qt/Qtc Interval Prolongation And Proarrhythmic Potential For Non-Antiarrhythmic Drugs (Nov. 15, 2002) available at: http://www.fda.gov/ohrms/dockets/ac/03/briefing/pubs %5Cprelim.pdf.
Relationships between various exposure measures, for example, plasma AUC, and hematological and cardiac toxicity are evaluated by sigmoid maximum-effect models. […] Hematological pharmacodynamics are evaluated by analysis of the absolute nadir values of platelet counts or the relative thrombocytopenia, that is, the percent decrease in platelet count. Data are fitted to a sigmoid maximum-effect model based on the modified Hill equation, as follows: E=E0+Emax×[(KP^γ)/(KP^γ+KP50^γ)]. In this equation, E0 is the minimum reduction possible, Emax is the maximum response (fixed to a value of 100), KP is the pharmacokinetic parameter of interest, KP50 the value of the pharmacokinetic parameter predicted to result in half of the maximum response, and γ is the Hill constant, which describes the sigmoidicity of the curve. Models are evaluated for goodness of fit by minimization of sums of the squared residuals and by reduction of the estimated coefficient of variation for fitted parameters. Significance of the relationships are assessed by construction of contingency tables with subsequent chi-squared analysis.
All data are reported as median values with range, unless specified otherwise. Interindividual pharmacokinetic variability is calculated as the coefficient of variation, and expressed as a percentage. Genotype-frequency analysis of Hardy-Weinberg equilibrium is carried out using Clump version 1.9. The linkage between each pair of SNPs is determined in terms of the classical statistic D′. The absolute value for D′ (|D′|) of 1 denotes complete linkage disequilibrium, while a value of 0 denotes complete linkage equilibrium. The effects of the variant genotypes on ΔQTc, relative thrombocytopenia, dose-normalized AUC, apparent oral clearance, half-life, volume of distribution at steady-state are evaluated statistically with the nonparametric Kruskal-Wallis test. A post-hoc distribution-free multiple comparison procedure is performed using the Dunn test with Bonferroni correction to test pairs of median observations. All statistical analyses are performed using the NCSS software program (version 2001; NCSS, Kaysville, Utah). The a priori level of significance is set at 0.05.

[2] = test system: patients with T-cell lymphoma; assay: Hematological toxicity: percentage decrease in platelet count versus FK228 AUC (sigmoid maximum effect model); type: in vivo, human; settings: P<0.001, FIG. 1
Protocol: Complete blood cell counts with differential are obtained immediately prior to FK228 administration and on days 2, 9, and 16 to evaluate FK228-related myelosuppression. Multiple surface electrocardiograms (ECGs) are obtained immediately before FK228 administration, and at 4 hours after the start of FK228 administration, to evaluate the ability of FK228 to delay cardiac repolarization. This effect is manifested on the ECG as prolongation of the QT interval. The QT interval is transformed into the heart-rate independent corrected value known as the QTc interval. […]
Relationships between various exposure measures, for example, plasma AUC, and hematological and cardiac toxicity are evaluated by sigmoid maximum-effect models. […] Hematological pharmacodynamics are evaluated by analysis of the absolute nadir values of platelet counts or the relative thrombocytopenia, that is, the percent decrease in platelet count. […] Models are evaluated for goodness of fit by minimization of sums of the squared residuals and by reduction of the estimated coefficient of variation for fitted parameters. Significance of the relationships are assessed by construction of contingency tables with subsequent chi-squared analysis.

clinical = settings: human, plasma, intravenous; for Vd: Vss, volume of distribution at steady-state

C/C=C1\NC(=O)[C@H]2CSSCC/C=C/[C@H](CC(=O)N[C@H](C(C)C)C(=O)N2)OC(=O)[C@H](C(C)C)NC1=O [FK228, (E)-(1S,4S,10S,21R)-7-[(Z)-ethylidene]-4,21-diisopropyl-2-oxa-12,13-dithia-5,8,20,23-tetraazabicyclo [8,7,6]-tricos-16-ene-3,6,19,22-pentanone]
ΔQTc at four hours ([1]; Example 1, ABCB1 2677GA genotype, n=1): 17.8 ms
ΔQTc at four hours, median ([1]; Example 1, ABCB1 2677GG genotype, n=10): 18.3 ms
ΔQTc at four hours, median ([1]; Example 1, ABCB1 2677GT genotype, n=14): 16.5 ms
ΔQTc at four hours, median ([1]; Example 1, ABCB1 2677T/T genotype, n=4): -5 ms
ΔQTc at four hours, median ([1]; Example 1, carriers of the heterozygote diplotype (2677/3435), n=7): 11.3 ms
ΔQTc at four hours, median ([1]; Example 1, carriers of the homozygote diplotype (2677/3435), n=19): 18.5 ms
ΔQTc at four hours, median ([1]; Example 1, homozygous for the ABCB1 2677TT/3435TT diplotype, n=3): -5.0 ms
ΔQTc at 4 hours, median ([1]; group 1, 0 reference alleles at both ABCB1 2677G>T/A and 3435C>T loci, N=4): -1 ms
ΔQTc at 4 hours, median ([1]; group 1, no reference alleles at the ABCB1 2677G>T/A locus, N=6): -2.0 ms
ΔQTc at 4 hours, median ([1]; group 1, one or more reference alleles at the ABCB1 2677G>T/A locus, N=32): 18.2 ms
ΔQTc at 4 hours, median ([1]; group 1, single reference allele at either ABCB1 2677G>T/A or 3435C>T locus, N=6): 9.7 ms
ΔQTc at 4 hours, median ([1]; group 1, two or more reference allele copy numbers at ABCB1 2677G>T/A and 3435C>T loci, N=28): 18.5 ms
ΔQTc at 4 hours, median ([1]; group 2, 0 or 1 reference alleles at ABCB1 2677G>T/A, N=14): 4 ms
ΔQTc at 4 hours, median ([1]; group 2, more than 1 reference allele at ABCB1 2677G>T/A, N=4): 24.5 ms
association of AUC of FK228 with percentage decrease in platelet count [2]: weakly associated
interindividual variability in drug clearance, percent coefficient of variation (Example 1, 42 patients): approximately 72%
interindividual variability in drug clearance, percent coefficient of variation (Example 2): approximately 72%
clearance (clinical; Clearance, All (N = 74), median): 238 mL/min
clearance (clinical; Clearance, Group 1 (N = 45), median): 252 mL/min
clearance (clinical; Clearance, Group 2 (N = 29), median): 232 mL/min
clearance (clinical; FK228 clearance, Example 1, all 42 patients combined, 4-hour infusion 14 or 18 mg/m^2, mean ± standard deviation): 292 mL/min
half-life (clinical; T1/2, half-life of the terminal phase, All (N = 74), median): 6 h
half-life (clinical; T1/2, half-life of the terminal phase, Group 1 (N = 45), median): 6.8 h
half-life (clinical; T1/2, half-life of the terminal phase, Group 2 (N = 29), median): 3.8 h
Vd (clinical; All (N = 74), median): 93.6 L
Vd (clinical; Group 1 (N = 45), median): 129 L
Vd (clinical; Group 2 (N = 29), median): 64.9 L
half-life (clinical; terminal half-life, Example 1, all 42 patients combined, 4-hour infusion 14 or 18 mg/m^2, mean ± standard deviation): 7.23 ± 3 h
